Assay results taken from patent US9458110B2, “Phenylpyrazole derivatives as potent ROCK1 and ROCK2 inhibitors” (BRISTOL-MYERS SQUIBB COMPANY, priority 2013, dated 2016).

Assays:
ROCK2 = ROCK2 (Homo sapiens (Human), UniProt O75116); experiment: ROCK assay (Caliper LABCHIP peptide phosphorylation), ROCK2; type: biochemical; details: 5 μM ATP, 1.5 μM peptide substrate;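 note: reaction stopped with EDTA, then phosphorylated and unphosphorylated peptide resolved by microfluidic electrophoresis, kinase inhibition computed at each compound concentration in dose-response series, DMSO under 2%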
ROCK1 = ROCK1 (Homo sapiens (Human), UniProt Q13464); experiment: ROCK assay (Caliper LABCHIP peptide phosphorylation), ROCK1; type: biochemical; details: 5 μM ATP, 1.5 μM peptide substrate;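 note: Read-out is separation of phosphorylated from unphosphorylated peptide, with kinase activity inhibition computed at every concentration of a dose-response series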
Sequence of ROCK1 (Q13464 whole entry, species assumed): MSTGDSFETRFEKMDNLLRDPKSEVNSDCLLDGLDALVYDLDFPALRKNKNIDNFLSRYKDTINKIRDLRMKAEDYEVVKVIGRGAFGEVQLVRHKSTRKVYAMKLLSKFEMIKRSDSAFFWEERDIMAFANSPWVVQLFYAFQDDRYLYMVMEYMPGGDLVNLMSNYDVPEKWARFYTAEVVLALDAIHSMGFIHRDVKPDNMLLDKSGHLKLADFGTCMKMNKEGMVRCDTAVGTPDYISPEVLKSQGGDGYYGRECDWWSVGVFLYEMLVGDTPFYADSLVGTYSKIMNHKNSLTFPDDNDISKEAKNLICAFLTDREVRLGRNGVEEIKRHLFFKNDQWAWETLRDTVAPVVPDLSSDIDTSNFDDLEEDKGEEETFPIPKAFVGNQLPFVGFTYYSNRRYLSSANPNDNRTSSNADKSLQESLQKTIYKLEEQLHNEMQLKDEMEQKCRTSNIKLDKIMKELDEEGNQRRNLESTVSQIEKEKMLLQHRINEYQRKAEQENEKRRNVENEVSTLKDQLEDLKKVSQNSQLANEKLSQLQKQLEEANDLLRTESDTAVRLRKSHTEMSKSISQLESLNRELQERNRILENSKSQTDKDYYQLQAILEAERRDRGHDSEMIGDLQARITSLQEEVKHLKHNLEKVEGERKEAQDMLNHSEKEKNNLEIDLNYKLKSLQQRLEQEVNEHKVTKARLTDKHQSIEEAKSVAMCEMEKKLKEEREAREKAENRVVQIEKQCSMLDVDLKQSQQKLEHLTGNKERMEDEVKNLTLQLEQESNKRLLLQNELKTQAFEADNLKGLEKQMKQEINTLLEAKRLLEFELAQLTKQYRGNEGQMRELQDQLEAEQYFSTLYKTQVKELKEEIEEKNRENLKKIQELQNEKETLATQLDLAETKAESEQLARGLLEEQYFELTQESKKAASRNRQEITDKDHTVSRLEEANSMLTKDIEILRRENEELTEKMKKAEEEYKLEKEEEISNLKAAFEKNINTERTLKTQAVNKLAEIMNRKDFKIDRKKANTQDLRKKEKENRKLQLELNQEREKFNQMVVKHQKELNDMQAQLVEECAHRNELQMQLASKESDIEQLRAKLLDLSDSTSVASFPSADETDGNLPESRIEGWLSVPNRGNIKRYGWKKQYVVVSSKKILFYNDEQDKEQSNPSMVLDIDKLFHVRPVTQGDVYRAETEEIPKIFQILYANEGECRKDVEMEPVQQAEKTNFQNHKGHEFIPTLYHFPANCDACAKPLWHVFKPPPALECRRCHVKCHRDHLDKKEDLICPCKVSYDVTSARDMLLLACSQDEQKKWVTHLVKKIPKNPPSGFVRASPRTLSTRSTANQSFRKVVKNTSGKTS

Sequence of ROCK2 (O75116 whole entry, species assumed): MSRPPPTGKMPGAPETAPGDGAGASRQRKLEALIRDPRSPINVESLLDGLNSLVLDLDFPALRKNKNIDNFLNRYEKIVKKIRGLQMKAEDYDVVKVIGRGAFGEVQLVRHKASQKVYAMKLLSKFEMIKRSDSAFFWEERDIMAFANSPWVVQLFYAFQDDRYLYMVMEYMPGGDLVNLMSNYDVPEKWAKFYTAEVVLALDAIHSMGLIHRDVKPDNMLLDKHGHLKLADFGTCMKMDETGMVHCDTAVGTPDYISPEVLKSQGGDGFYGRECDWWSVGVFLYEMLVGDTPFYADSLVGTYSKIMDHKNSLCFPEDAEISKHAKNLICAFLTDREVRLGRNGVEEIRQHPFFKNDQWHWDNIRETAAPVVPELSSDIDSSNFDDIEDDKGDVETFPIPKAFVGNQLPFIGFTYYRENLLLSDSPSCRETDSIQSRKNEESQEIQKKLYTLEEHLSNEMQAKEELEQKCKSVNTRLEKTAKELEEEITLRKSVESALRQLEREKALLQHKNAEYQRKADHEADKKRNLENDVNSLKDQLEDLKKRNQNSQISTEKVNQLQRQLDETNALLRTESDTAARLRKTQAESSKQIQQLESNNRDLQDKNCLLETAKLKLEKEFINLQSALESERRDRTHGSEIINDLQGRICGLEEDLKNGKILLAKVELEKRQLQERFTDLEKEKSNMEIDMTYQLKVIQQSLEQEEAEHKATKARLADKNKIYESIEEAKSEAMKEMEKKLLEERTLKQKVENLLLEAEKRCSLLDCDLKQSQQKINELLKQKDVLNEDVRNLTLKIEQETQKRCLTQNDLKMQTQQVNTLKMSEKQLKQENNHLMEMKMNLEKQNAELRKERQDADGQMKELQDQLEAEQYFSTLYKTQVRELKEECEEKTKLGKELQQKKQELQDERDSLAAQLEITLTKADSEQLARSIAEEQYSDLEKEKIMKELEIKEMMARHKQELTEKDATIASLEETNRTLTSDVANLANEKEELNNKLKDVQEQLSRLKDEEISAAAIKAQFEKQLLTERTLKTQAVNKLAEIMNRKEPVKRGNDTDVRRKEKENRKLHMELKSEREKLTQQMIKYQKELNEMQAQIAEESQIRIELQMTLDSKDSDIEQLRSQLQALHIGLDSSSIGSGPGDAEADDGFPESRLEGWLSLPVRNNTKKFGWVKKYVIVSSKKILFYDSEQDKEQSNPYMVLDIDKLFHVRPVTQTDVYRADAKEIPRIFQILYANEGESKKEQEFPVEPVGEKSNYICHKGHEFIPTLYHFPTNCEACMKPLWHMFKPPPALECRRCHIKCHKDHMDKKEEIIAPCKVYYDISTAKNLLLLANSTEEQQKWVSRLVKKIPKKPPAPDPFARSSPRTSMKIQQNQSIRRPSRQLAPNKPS

SMILES	IC50 (ROCK2)	IC50 (ROCK1)
COc1cc(C(=O)NCc2ccc(Cl)c(C(F)(F)F)c2)ccc1-c1cn[nH]c1 [Example 39, N-(4-chloro-3-(trifluoromethyl)benzyl)-3-methoxy-4-(1H-pyrazol-4-yl)benzamide]	33.3 nM	107 nM
COc1cc(C(=O)N[C@@H](C)[C@H](O)c2ccccc2)ccc1-c1cn[nH]c1 [Example 40, N-((1R,2S)-1-hydroxy-1-phenylpropan-2-yl)-3-methoxy-4-(1H-pyrazol-4-yl)benzamide]	224 nM	337 nM
COc1cc(C(=O)NCc2ccc(F)cc2Cl)ccc1-c1cn[nH]c1 [Example 41, N-(2-chloro-4-fluorobenzyl)-3-methoxy-4-(1H-pyrazol-4-yl)benzamide]	2.54 nM	3.37 nM
COc1cc(C(=O)N[C@H](C)[C@@H](O)c2ccccc2)ccc1-c1cn[nH]c1 [Example 42, N-((1S,2R)-1-hydroxy-1-phenylpropan-2-yl)-3-methoxy-4-(1H-pyrazol-4-yl)benzamide]	11 nM	26.3 nM
COc1cc(C(=O)N[C@H](C)c2ccccc2Cl)ccc1-c1cn[nH]c1 [Example 43, (R)-N-(1-(2-chlorophenyl)ethyl)-3-methoxy-4-(1H-pyrazol-4-yl) benzamide]	1.31 nM	40.8 nM
COc1cc(C(=O)N[C@@H](C)c2ccccc2Cl)ccc1-c1cn[nH]c1 [Example 44, (S)-N-(1-(2-chlorophenyl)ethyl)-3-methoxy-4-(1H-pyrazol-4-yl)benzamide]	52.5 nM	96.1 nM
COc1cc(C(=O)NCc2ccc(Br)cc2Cl)ccc1-c1cn[nH]c1 [Example 45, N-(4-bromo-2-chlorobenzyl)-3-methoxy-4-(1H-pyrazol-4-yl)benzamide]	4.69 nM	16.9 nM
COc1cc(C(=O)NCc2ccc(OCC(C)C)cc2Cl)ccc1-c1cn[nH]c1 [Example 46, N-(2-chloro-4-isobutoxybenzyl)-3-methoxy-4-(1H-pyrazol-4-yl)benzamide]	786 nM	1880 nM
COc1cc(C(=O)NCc2ccc(Cl)cc2SCC(C)C)ccc1-c1cn[nH]c1 [Example 47, N-(4-chloro-2-(isobutylthio)benzyl)-3-methoxy-4-(1H-pyrazol-4-yl)benzamide]	1320 nM	> 2000 nM
COc1cc(C(=O)NCc2ccc(Oc3ccccc3)cc2Cl)ccc1-c1cn[nH]c1 [Example 48, N-(2-chloro-4-phenoxybenzyl)-3-methoxy-4-(1H-pyrazol-4-yl)benzamide]	1320 nM	663 nM
COc1ccc(F)c(CNC(=O)c2ccc(-c3cn[nH]c3)c(OC)c2)c1 [Example 49, N-(2-fluoro-5-methoxybenzyl)-3-methoxy-4-(1H-pyrazol-4-yl)benzamide]	2.47 nM	14.3 nM
COc1cc(C(=O)NCc2ccc(F)c(OC)c2F)ccc1-c1cn[nH]c1 [Example 50, N-(2,4-difluoro-3-methoxybenzyl)-3-methoxy-4-(1H-pyrazol-4-yl)benzamide]	16.7 nM	64 nM
COc1cc(C(=O)NCc2c(F)ccc(OC)c2F)ccc1-c1cn[nH]c1 [Example 51, N-(2,6-difluoro-3-methoxybenzyl)-3-methoxy-4-(1H-pyrazol-4-yl)benzamide]	5.35 nM	14.8 nM
COc1cc(C(=O)NCc2cc(F)cc(F)c2)ccc1-c1cn[nH]c1 [Example 52, N-(3,5-difluorobenzyl)-3-methoxy-4-(1H-pyrazol-4-yl)benzamide]	63.4 nM	125 nM
COc1cc(-c2cn[nH]c2)ccc1C(=O)NCc1ccccc1Cl [Example 53, N-(2-Chlorobenzyl)-2-methoxy-4-(1H-pyrazol-4-yl)benzamide]	6.2 nM	11.3 nM
COc1cccc(CNC(=O)c2ccc(-c3cn[nH]c3)cc2OC)c1 [Example 54, 2-methoxy-N-(3-methoxybenzyl)-4-(1H-pyrazol-4-yl)benzamide]	4.81 nM	21.3 nM
COc1cccc(CNC(=O)c2ccc(-c3c[nH]nc3C)c(OC)c2)c1 [Example 56, 3-Methoxy-N-(3-methoxybenzyl)-4-(3-methyl-1H-pyrazol-4-yl)benzamide]	204 nM	461 nM
COc1cc(C(=O)NCc2ccccc2Cl)ccc1-c1c[nH]nc1C [Example 57, N-(2-Chlorobenzyl)-3-methoxy-4-(3-methyl-1H-pyrazol-4-yl)benzamide]	101 nM	147 nM
COc1cccc(CNC(=O)c2ccc(-c3cn[nH]c3)c(C)c2)c1 [Example 58, N-(3-Methoxybenzyl)-3-methyl-4-(1H-pyrazol-4-yl)benzamide]	2.28 nM	16.9 nM
COc1cccc(CNC(=O)c2ccc(-c3cn[nH]c3)c(F)c2)c1 [Example 59, 3-Fluoro-N-(3-methoxybenzyl)-4-(1H-pyrazol-4-yl)benzamide]	18.9 nM	33.3 nM
COc1cccc([C@@H](C)NC(=O)c2ccc(-c3cn[nH]c3)cc2S(C)(=O)=O)c1 [Example 61, (R)-N-(1-(3-Methoxyphenyl)ethyl)-2-(methylsulfonyl)-4-(1H-pyrazol-4-yl)benzamide]	4590 nM	> 2000 nM
COc1cccc([C@@H](C)NC(=O)c2ccc(-c3cn[nH]c3)cc2F)c1 [Example 62, (R)-2-Fluoro-N-(1-(3-methoxyphenyl)ethyl)-4-(1H-pyrazol-4-yl)benzamide]	8.87 nM	43.3 nM
CN(C)CCOc1cc(C(=O)NCc2ccccc2Cl)ccc1-c1cn[nH]c1 [Example 63, N-(2-Chlorobenzyl)-3-(2-(dimethylamino)ethoxy)-4-(1H-pyrazol-4-yl)benzamide]	844 nM	1580 nM
COc1cc(C(=O)NCc2cccc(C(=O)O)c2)ccc1-c1cn[nH]c1 [Example 64, 3-((3-Methoxy-4-(1H-pyrazol-4-yl)benzamido)methyl)benzoic acid]	1.2 nM	7.7 nM
COc1cc(C(=O)NCc2cccc(C(=O)N3CCCC3)c2)ccc1-c1cn[nH]c1 [Example 66, 3-methoxy-4-(1H-pyrazol-4-yl)-N-(3-(pyrrolidine-1-carbonyl)benzyl) benzamide]	23.5 nM	64.3 nM
COc1cc(C(=O)NCc2cc(F)ccc2F)ccc1-c1cn[nH]c1 [Example 69, N-(2,5-difluorobenzyl)-3-methoxy-4-(1H-pyrazol-4-yl)benzamide]	5.2 nM	18.6 nM
COc1cc(C(=O)N(C)CCc2ccccc2)ccc1-c1cn[nH]c1 [Example 70, 3-methoxy-N-methyl-N-phenethyl-4-(1H-pyrazol-4-yl)benzamide]	164 nM	379 nM
COc1cc(C(=O)N(C)Cc2ccccc2)ccc1-c1cn[nH]c1 [Example 71, N-benzyl-3-methoxy-N-methyl-4-(1H-pyrazol-4-yl)benzamide]	494 nM	1340 nM
COc1cc(C(=O)N[C@H](C)c2ccccc2)ccc1-c1cn[nH]c1 [Example 72, (R)-3-methoxy-N-(1-phenylethyl)-4-(1H-pyrazol-4-yl)benzamide]	1.48 nM	5.91 nM
COc1cc(C(=O)N[C@H](C)c2ccc(F)cc2)ccc1-c1cn[nH]c1 [Example 73, (R)-N-(1-(4-fluorophenyl)ethyl)-3-methoxy-4-(1H-pyrazol-4-yl)benzamide]	2.69 nM	9.03 nM
